Values quoted from earlier work, collected in patent US20040063167A1, “Minimising calibration problems of in vivo glucose sensors” (priority 2002, published 2004).

Tested on: animal, plant and bacterial cells in culture

## OO [H2O2, Hydrogen peroxide]
Many cell types, "at or below about"
  levels of H2O2 that seem to have limited cytotoxicity: 20 to 50 µM
Wide range of animal, plant and bacterial cells in culture, "usually"
  levels of H2O2 described as being cytotoxic: ≥ 50 µM
